Laboratory results from patent US20030013099A1, “Genes regulated by DNA methylation in colon tumors” (priority 2001, published 2003).

How the values were obtained:
HT29 cells = assay: microarray differential expression, HT29 cells treated with 500 nM Aza; assay type: cell-based, human; conditions: vs untreated, log base 2, negative = upregulation
Protocol: HT29 cells were derived from a Grade II adenocarcinoma of the colon obtained from a person. HCT116 cells are a subpopulation of malignant cells isolated from a primary cell culture of a single human colonic carcinoma (Brattain et al. (1981) Cancer Res 41:1751-6). HMEC cells are a primary human epithelial cell line derived from the breast tissue of a normal donor. HT29 and HCT116 colorectal carcinoma cells (American Type Culture Collection, Manassas Va.) were cultured in McCoy's medium supplemented with 10% fetal bovine serum (Invitrogen) at 37° C. and 5% CO2. Treated cells were exposed to 500 nM 5-aza-2-deoxycytidine (Aza; Sigma-Aldrich) 24 hours after passage in complete culture medium. Control cultures were treated in parallel with phosphate buffered saline vehicle. After twenty-four hours, culture medium was replaced with drug-free medium. Control and Aza-treated cells were subcultured at equal densities at 1 and 5 days after the initial treatment, and proliferation was measured at the subsequent time point using a Coulter counter (Beckman Coulter, Fullerton Calif.). Cells were harvested 5 days after the initial treatment.
Cells were harvested and lysed in 1 ml of TRIZOL reagent (5×10^6 cells/ml; Invitrogen). The lysates were vortexed thoroughly and incubated at room temperature for 2-3 minutes and extracted with 0.5 ml chloroform. The extract was mixed, incubated at room temperature for 5 minutes, and centrifuged at 16,000× g for 15 minutes at 4° C. The aqueous layer was collected, and an equal volume of isopropanol was added. Samples were mixed, incubated at room temperature for 10 minutes, and centrifuged at 16,000× g for 20 minutes at 4° C. The supernatant was removed, and the RNA pellet was washed with 1 ml of 70% ethanol, centrifuged at 16,000× g at 4° C., and resuspended in RNAse-free water. The concentration of the RNA was determined by measuring the optical density at 260 nm.
Poly(A) RNA was prepared using an OLIGOTEX mRNA kit (Qiagen) with the following modifications: OLIGOTEX beads were washed in tubes instead of on spin columns, resuspended in elution buffer, and then loaded onto spin columns to recover mRNA. To obtain maximum yield, the mRNA was eluted twice.
Each poly(A) RNA sample was reverse transcribed using MMLV reverse-transcriptase, 0.05 pg/μl oligo-d(T) primer (21mer), 1× first strand buffer, 0.03 units/ul RNAse inhibitor, 500 uM dAT?, 500 uM dGTP, 500 uM dTTP, 40 uM dCTP, and 40 uM either dCTP-Cy3 or dCTP-Cy5 (APB). The reverse transcription reaction was performed in a […] volume containing 200 ng poly(A) RNA using the GEMBRIGHT kit (Incyte Genomics). Specific control poly(A) RNAs (YCFRO6, YCFR45, YCFR67, YCFR85, YCFR43, YCFR22, YCFR23, YCFR25, YCFR44, YCFR26) were synthesized by in vitro transcription from non-coding yeast genomic DNA (W. Lei, unpublished). As quantitative controls, control mRNAs (YCFRO6, YCFR45, YCFR67, and YCFR85) at 0.002 ng, 0.02 ng, 0.2 ng, and 2 ng were diluted into reverse transcription reaction at ratios of 1:100,000, 1:10,000, 1:1000, 1:100 (w/w) to sample mRNA, respectively. To sample differential expression patterns, control mRNAs (YCFR43, YCFR22, YCFR23, YCFR25, YCFR44, YCFR26) were diluted into reverse transcription reaction at ratios of 1:3, 3:1, 1:10, 10:1, 1:25, 25:1 (w/w) to sample mRNA. Reactions were incubated at 37° C. for 2 hours, treated with […] of 0.5M sodium hydroxide, and incubated for 20 minutes at 85° C. to the stop the reaction and degrade the RNA.
cDNAs were purified using two successive CHROMA SPIN 30 gel filtration spin columns (Clontech). Cy3- and Cy5-labeled reaction samples were combined as described below and ethanol precipitated using […] of 100% ethanol. The cDNAs were then dried to completion using a SpeedVAC system (Savant Instruments, Holbrook N.Y.) and resuspended in 14 μl 5× SSC, 0.2% SDS. […]

MIN mouse = conditions: Aza treatment in combination with a genetic reduction in DNA methyltransferase I activity; cited from earlier work

## Nc1ncn([C@H]2C[C@H](O)[C@@H](CO)O2)c(=O)n1 [Aza, 5-aza-2-deoxycytidine]
HT29 cells; SEQ ID NO:1 hypothetical protein
  differential expression, Clone ID 2416222, HT29 t/ Aza (5d): −1.74
HT29 cells; SEQ ID NO:2 Incyte Unique
  differential expression, Clone ID 4103545, HT29 t/ Aza (5d): −1.89
HT29 cells; SEQ ID NO:3 interferon-inducible protein
  differential expression, Clone ID 322569, HT29 t/ Aza (5d): −4.17
HT29 cells; SEQ ID NO:5 chromosome 6p21.3, HLA Class I region
  differential expression, Clone ID 5322134, HT29 t/ Aza (5d): −2.12
HT29 cells; SEQ ID NO:6 unnamed protein product
  differential expression, Clone ID 1698458, HT29 t/ Aza (5d): −1.79
HT29 cells; SEQ ID NO:7 KIAA1046 protein
  differential expression, Clone ID 1871523, HT29 t/ Aza (5d): −1.07
HT29 cells; SEQ ID NO:8 putative tumor antigen
  differential expression, Clone ID 6024084, HT29 t/ Aza (5d): −2.79
HT29 cells; SEQ ID NO:9 Incyte Unique
  differential expression, Clone ID 3810006, HT29 t/ Aza (5d): −0.92
HT29 cells; SEQ ID NO:10 Incyte Unique
  differential expression, Clone ID 4508879, HT29 t/ Aza (5d): −0.85
HT29 cells; SEQ ID NO:11 U 6 RNA
  differential expression, Clone ID 4225379, HT29 t/ Aza (5d): −0.85
HT29 cells; SEQ ID NO:12 cDNA clone ZD16H10
  differential expression, Clone ID 3463713, HT29 t/ Aza (5d): −1.87
HT29 cells; SEQ ID NO:13, 14 T-cell receptor gamma
  differential expression, Clone ID 2998017, HT29 t/ Aza (5d): −1.14
HT29 cells; SEQ ID NO:15 pTR5 repetitive sequence
  differential expression, Clone ID 4318273, HT29 t/ Aza (5d): −1.58
HT29 cells; SEQ ID NO:16 Hep27 protein
  differential expression, Clone ID 1649414, HT29 t/ Aza (5d): −1.20
HT29 cells; SEQ ID NO:18 cDNA FLJ20222
  differential expression, Clone ID 1684742, HT29 t/ Aza (5d): −0.85
HT29 cells; SEQ ID NO:19 KIAA0412
  differential expression, Clone ID 2825816, HT29 t/ Aza (5d): −1.84
HT29 cells; SEQ ID NO:21 Incyte Unique
  differential expression, Clone ID 2440943, HT29 t/ Aza (5d): −1.07
HT29 cells; SEQ ID NO:22 PDGF-B
  differential expression, Clone ID 1294339, HT29 t/ Aza (5d): −0.93
HT29 cells; SEQ ID NO:23 cDNA FLJ10570
  differential expression, Clone ID 5104741, HT29 t/ Aza (5d): −0.93
HT29 cells; SEQ ID NO:24 pTR7 repetitive sequence
  differential expression, Clone ID 1855389, HT29 t/ Aza (5d): −2.09
HT29 cells; SEQ ID NO:25 chromosome 21 segment HS21C049
  differential expression, Clone ID 5207613, HT29 t/ Aza (5d): −2.10
HT29 cells; SEQ ID NO:26 hypothetical protein
  differential expression, Clone ID 3207902, HT29 t/ Aza (5d): −1.29
HT29 cells; SEQ ID NO:27 ZNFpT17
  differential expression, Clone ID 4999769, HT29 t/ Aza (5d): −1.26
HT29 cells; SEQ ID NO:28 transketolase
  differential expression, Clone ID 408886, HT29 t/ Aza (5d): −1.31
HT29 cells; SEQ ID NO:30 GAGE-8
  differential expression, Clone ID 4764233, HT29 t/ Aza (5d): −2.00
HT29 cells; SEQ ID NO:31 GAGE-7B
  differential expression, Clone ID 2511379, HT29 t/ Aza (5d): −1.98
HT29 cells; SEQ ID NO:33 cDNA clone YU62C03
  differential expression, Clone ID 2471817, HT29 t/ Aza (5d): −1.20
HT29 cells; SEQ ID NO:34 MAGE-11 antigen
  differential expression, Clone ID 3333736, HT29 t/ Aza (5d): −1.38
HT29 cells; SEQ ID NO:35 GAGE-8
  differential expression, Clone ID 1304365, HT29 t/ Aza (5d): −2.48
HT29 cells; SEQ ID NO:37, 38 MAGE-4b antigen
  differential expression, Clone ID 2657056, HT29 t/ Aza (5d): −1.93
HT29 cells; SEQ ID NO:39 MAGE-9 antigen
  differential expression, Clone ID 2507719, HT29 t/ Aza (5d): −2.32
HT29 cells; SEQ ID NO:41 MAGE-1
  differential expression, Clone ID 4688, HT29 t/ Aza (5d): −2.03
HT29 cells; SEQ ID NO:42 HM74
  differential expression, Clone ID 2068708, HT29 t/ Aza (5d): −1.17
HT29 cells; SEQ ID NO:43 1-8D
  differential expression, Clone ID 23770, HT29 t/ Aza (5d): −2.99
HT29 cells; SEQ ID NO:45 Incyte Unique
  differential expression, Clone ID 1616783, HT29 t/ Aza (5d): −0.84
HT29 cells; SEQ ID NO:46 cDNA FLJ20120
  differential expression, Clone ID 820942, HT29 t/ Aza (5d): −0.58
HT29 cells; SEQ ID NO:47 Incyte Unique
  differential expression, Clone ID 891322, HT29 t/ Aza (5d): 0.00
HT29 cells; SEQ ID NO:48 U5 A RNA
  differential expression, Clone ID 2755836, HT29 t/ Aza (5d): −0.68
HT29 cells; SEQ ID NO:49 phospholipid scramblase 1
  differential expression, Clone ID 1227521, HT29 t/ Aza (5d): −2.10
HT29 cells; SEQ ID NO:50 retinoid inducible gene 1
  differential expression, Clone ID 2200842, HT29 t/ Aza (5d): −1.74
HT29 cells; SEQ ID NO:51 interferon induced
  differential expression, Clone ID 2238363, HT29 t/ Aza (5d): −1.85
HT29 cells; SEQ ID NO:53 TRAIL
  differential expression, Clone ID 1495382, HT29 t/ Aza (5d): −1.07
HT29 cells; SEQ ID NO:55 rhoB
  differential expression, Clone ID 1998269, HT29 t/ Aza (5d): −0.92
HT29 cells; SEQ ID NO:56 hepatitis C-associated microtubular aggregate
  differential expression, Clone ID 1919287, HT29 t/ Aza (5d): −3.12
HT29 cells; SEQ ID NO:57 HE4 protein
  differential expression, Clone ID 2637446, HT29 t/ Aza (5d): −1.07
HT29 cells; SEQ ID NO:58 Similar to keratin 7
  differential expression, Clone ID 1962141, HT29 t/ Aza (5d): −0.43
HT29 cells; SEQ ID NO:60 Incyte Unique
  differential expression, Clone ID 4933404, HT29 t/ Aza (5d): −0.32
HT29 cells; SEQ ID NO:61 Keratin 8
  differential expression, Clone ID 2150288, HT29 t/ Aza (5d): −0.07
  differential expression, Clone ID 2697455, HT29 t/ Aza (5d): −0.32
MIN mouse
  polyp formation: reduced polyp formation
